Reference: ChEMBL document CHEMBL1131737, “An efficient stereoselective synthesis of [3S(1S,9S)]-3-[[[9-(benzoylamino) octahydro-6,10-dioxo-6H-pyridazino-(1,2-a)(1,2)-diazepin-1-yl]-carbonyl ]amino]-4-oxobutanoic acid, an interleukin converting enzyme (ICE) inhibitor” (Bioorg Med Chem Lett, 1999)
The source made the active and inactive calls. No cut-off for these calls is given here.

Target: T1, Caspase-1 (Homo sapiens) (UniProt P29466)
T1 sequence (whole entry): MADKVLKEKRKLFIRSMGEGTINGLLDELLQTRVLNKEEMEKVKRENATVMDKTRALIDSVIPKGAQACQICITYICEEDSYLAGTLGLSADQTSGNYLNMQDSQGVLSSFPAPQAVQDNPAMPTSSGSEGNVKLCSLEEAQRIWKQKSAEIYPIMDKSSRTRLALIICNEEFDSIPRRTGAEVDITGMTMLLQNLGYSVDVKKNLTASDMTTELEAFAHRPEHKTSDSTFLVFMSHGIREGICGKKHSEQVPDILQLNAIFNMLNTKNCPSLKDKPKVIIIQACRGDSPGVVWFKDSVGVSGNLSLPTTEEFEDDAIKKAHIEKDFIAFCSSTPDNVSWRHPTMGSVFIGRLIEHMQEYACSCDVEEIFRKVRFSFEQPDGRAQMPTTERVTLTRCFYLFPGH
Experiment: Inhibitory activity against IL-1 beta converting enzyme; Active

SMILES: O=C[C@H](CC(=O)O)NC(=O)[C@@H]1CCCN2C(=O)CC[C@H](NC(=O)c3ccccc3)C(=O)N12
- Activity: Active
